Experimental data: PMC10066365, “Nemacol is a small molecule inhibitor of C. elegans vesicular acetylcholine transporter with anthelmintic potential” (Nature Communications, 2023)
“And” between values parts separate entries of the source, which are not always exact repeats. Equal entries are not always repeated.

Legend:
Assay type in all cases: in vivo, Caenorhabditis elegans
C. elegans DA1316 = experiment: C. elegans 3-day liquid viability assay, DA1316 avr-14; avr-15; […]; conditions: for total animals normalized to corresponding controls: DA1316
[1] = Motor phenotype time course on 60 μM Nemacol-1, EMB-8 disruption vs wild type; conditions: N2, 60µM, count per bio rep
[2] = tested on: C. elegans emb-8(hc69); emb-8(RNAi); experiment: as above; conditions: for adult worms C1 (loose coil) / adult worms C2 (tight coil) / adult worms NP (no phene) / adult worms J (jerky-unc): count per bio rep
C. elegans = experiment: as above
[3] = N2, 60µM, 1h, average of 3 biological repeats
[4] = N2, 60µM, 4h, average of 3 biological repeats
[5] = N2, 60µM, 6h, average of 3 biological repeats
[6] = N2, 60µM, 24h, average of 3 biological repeats
[7] = emb-8, 60µM, 1h, average of 3 biological repeats
[8] = emb-8, 60µM, 4h, average of 3 biological repeats
[9] = emb-8, 60µM, 6h, average of 3 biological repeats
[10] = emb-8, 60µM, 24h, average of 3 biological repeats

O=[N+]([O-])c1ccc(N2CCN(CC3CCCCC3)CC2)cc1 [Nemacol-1]
total animals normalized to corresponding controls (C. elegans DA1316; ivermectin 0 uM + nemacol-1 5.72205e-5): 117.10 | total animals normalized to corresponding controls (C. elegans DA1316; ivermectin 0 uM + nemacol-1 0.0146484): 91.26 | total animals normalized to corresponding controls (C. elegans DA1316; ivermectin 0 uM + nemacol-1 3.75): 106.04 | total animals normalized to corresponding controls (C. elegans DA1316; ivermectin 0 uM + nemacol-1 7.5): 111.01 | total animals normalized to corresponding controls (C. elegans DA1316; ivermectin 0 uM + nemacol-1 15): 100.31 | total animals normalized to corresponding controls (C. elegans DA1316; ivermectin 0 uM + nemacol-1 30): 100.23 | total animals normalized to corresponding controls (C. elegans DA1316; ivermectin 0 uM + nemacol-1 60): 99.19 | total animals normalized to corresponding controls (C. elegans DA1316; ivermectin 0.0009375 uM + nemacol-1 0.000114441): 112.95 | total animals normalized to corresponding controls (C. elegans DA1316; ivermectin 0.0009375 uM + nemacol-1 0.0292969): 124.80 | total animals normalized to corresponding controls (C. elegans DA1316; ivermectin 0.0009375 uM + nemacol-1 3.75): 113.26 | total animals normalized to corresponding controls (C. elegans DA1316; ivermectin 0.0009375 uM + nemacol-1 7.5): 122.67 | total animals normalized to corresponding controls (C. elegans DA1316; ivermectin 0.0009375 uM + nemacol-1 15): 99.45 | total animals normalized to corresponding controls (C. elegans DA1316; ivermectin 0.0009375 uM + nemacol-1 30): 96.12 | total animals normalized to corresponding controls (C. elegans DA1316; ivermectin 0.0009375 uM + nemacol-1 60): 95.59 | total animals normalized to corresponding controls (C. elegans DA1316; ivermectin 0.001875 uM + nemacol-1 0.000228882): 117.74 | total animals normalized to corresponding controls (C. elegans DA1316; ivermectin 0.001875 uM + nemacol-1 0.0585938): 95.40 | total animals normalized to corresponding controls (C. elegans DA1316; ivermectin 0.001875 uM + nemacol-1 3.75): 107.81 | total animals normalized to corresponding controls (C. elegans DA1316; ivermectin 0.001875 uM + nemacol-1 7.5): 110.79 | total animals normalized to corresponding controls (C. elegans DA1316; ivermectin 0.001875 uM + nemacol-1 15): 103.40 | total animals normalized to corresponding controls (C. elegans DA1316; ivermectin 0.001875 uM + nemacol-1 30): 87.76 | total animals normalized to corresponding controls (C. elegans DA1316; ivermectin 0.001875 uM + nemacol-1 60): 95.73 | total animals normalized to corresponding controls (C. elegans DA1316; ivermectin 0.00375 uM + nemacol-1 0.000457764): 105.05 | total animals normalized to corresponding controls (C. elegans DA1316; ivermectin 0.00375 uM + nemacol-1 0.117188): 110.64 | total animals normalized to corresponding controls (C. elegans DA1316; ivermectin 0.00375 uM + nemacol-1 3.75): 115.16 | total animals normalized to corresponding controls (C. elegans DA1316; ivermectin 0.00375 uM + nemacol-1 7.5): 104.58 | total animals normalized to corresponding controls (C. elegans DA1316; ivermectin 0.00375 uM + nemacol-1 15): 92.41 | total animals normalized to corresponding controls (C. elegans DA1316; ivermectin 0.00375 uM + nemacol-1 30): 95.26 | total animals normalized to corresponding controls (C. elegans DA1316; ivermectin 0.00375 uM + nemacol-1 60): 95.05 | total animals normalized to corresponding controls (C. elegans DA1316; ivermectin 0.03 uM + nemacol-1 0.00366211): 117.10 | total animals normalized to corresponding controls (C. elegans DA1316; ivermectin 0.03 uM + nemacol-1 0.9375): 95.99 | total animals normalized to corresponding controls (C. elegans DA1316; ivermectin 0.03 uM + nemacol-1 3.75): 106.91 | total animals normalized to corresponding controls (C. elegans DA1316; ivermectin 0.03 uM + nemacol-1 7.5): 93.50 | total animals normalized to corresponding controls (C. elegans DA1316; ivermectin 0.03 uM + nemacol-1 15): 78.16 | total animals normalized to corresponding controls (C. elegans DA1316; ivermectin 0.03 uM + nemacol-1 30): 62.13 | total animals normalized to corresponding controls (C. elegans DA1316; ivermectin 0.03 uM + nemacol-1 60): 54.19 | total animals normalized to corresponding controls (C. elegans DA1316; ivermectin 0.06 uM + nemacol-1 0.00732422): 74.90 | total animals normalized to corresponding controls (C. elegans DA1316; ivermectin 0.06 uM + nemacol-1 1.875): 82.85 | total animals normalized to corresponding controls (C. elegans DA1316; ivermectin 0.06 uM + nemacol-1 3.75): 87.36 | total animals normalized to corresponding controls (C. elegans DA1316; ivermectin 0.06 uM + nemacol-1 7.5): 84.34 | total animals normalized to corresponding controls (C. elegans DA1316; ivermectin 0.06 uM + nemacol-1 15): 45.86 | total animals normalized to corresponding controls (C. elegans DA1316; ivermectin 0.06 uM + nemacol-1 30): 52.87 | total animals normalized to corresponding controls (C. elegans DA1316; ivermectin 0.06 uM + nemacol-1 60): 31.96 | synergy with Ivermectin in triple mutant compared to wild type (C. elegans DA1316; avr-14, avr-15, glc-1 triple mutant): 0.6 fold | adult worms P (paralyzed) ([1]; 6h): 0 | adult worms P (paralyzed) ([1]; 24h): 0 | Fraction Coiled [2, 3]: 0.5185 | Fraction Jerky-Unc [2, 3]: 0.2778 | Fraction Parayzed [2, 3]: 0.2037 | adult worms C1 (loose coil) ([2]; N2, 60µM, 1h): 4 and 3 and 5 | adult worms C2 (tight coil) ([2]; N2, 60µM, 1h): 6 and 4 | adult worms NP (no phene) ([2]; N2, 60µM, 1h): 0 | Fraction Coiled ([2]; N2, 60µM, 1h, per bio rep): 0.5000 and 0.5556 | Fraction Coiled [2, 4]: 0.1111 | Fraction Jerky-Unc [2, 4]: 0.2963 | Fraction Parayzed [2, 4]: 0.0185 | adult worms J (jerky-unc) ([2]; N2, 60µM, 4h): 7 and 5 and 4 | adult worms NP (no phene) ([2]; N2, 60µM, 4h): 7 and 14 and 10 | Fraction Jerky-Unc ([2]; N2, 60µM, 4h, per bio rep): 0.2222 and 0.3889 and 0.2778 | Fraction Coiled [2, 5]: 0.0556 | Fraction Jerky-Unc [2, 5]: 0.2037 | Fraction Parayzed [2, 5]: 0.0000 | adult worms J (jerky-unc) ([2]; N2, 60µM, 6h): 3 and 5 | adult worms NP (no phene) ([2]; N2, 60µM, 6h): 15 and 10 | Fraction Jerky-Unc ([2]; N2, 60µM, 6h, per bio rep): 0.1667 and 0.2778 | Fraction Parayzed ([2]; N2, 60µM, 6h, per bio rep): 0.0000 | Fraction Coiled [2, 6]: 0.0000 | Fraction Jerky-Unc [2, 6]: 0.0000 | Fraction Parayzed [2, 6]: 0.0000 | adult worms C1 (loose coil) ([2]; N2, 60µM, 24h): 0 | adult worms C2 (tight coil) ([2]; N2, 60µM, 24h): 0 | adult worms J (jerky-unc) ([2]; N2, 60µM, 24h): 0 | adult worms NP (no phene) ([2]; N2, 60µM, 24h): 18 | Fraction Coiled ([2]; N2, 60µM, 24h, per bio rep): 0.0000 | Fraction Jerky-Unc ([2]; N2, 60µM, 24h, per bio rep): 0.0000 | Fraction Parayzed ([2]; N2, 60µM, 24h, per bio rep): 0.0000 | Fraction Coiled [2, 7]: 0.5000 | Fraction Jerky-Unc [2, 7]: 0.2778 | Fraction Parayzed [2, 7]: 0.2222 | adult worms C1 (loose coil) ([2]; emb-8, 60µM, 1h): 3 and 4 | adult worms C2 (tight coil) ([2]; emb-8, 60µM, 1h): 6 and 4 | adult worms J (jerky-unc) ([2]; emb-8, 60µM, 1h): 5 and 4 and 6 | adult worms NP (no phene) ([2]; emb-8, 60µM, 1h): 0 | Fraction Coiled ([2]; emb-8, 60µM, 1h, per bio rep): 0.5556 and 0.5000 and 0.4444 | Fraction Jerky-Unc ([2]; emb-8, 60µM, 1h, per bio rep): 0.3333 and 0.2778 and 0.2222 | Fraction Coiled [2, 8]: 0.1481 | Fraction Jerky-Unc [2, 8]: 0.3889 | Fraction Parayzed [2, 8]: 0.4630 | adult worms NP (no phene) ([2]; emb-8, 60µM, 4h): 0 | Fraction Coiled [2, 9]: 0.3704 | Fraction Jerky-Unc [2, 9]: 0.2778 | Fraction Parayzed [2, 9]: 0.3519 | adult worms C2 (tight coil) ([2]; emb-8, 60µM, 6h): 4 and 3 | adult worms NP (no phene) ([2]; emb-8, 60µM, 6h): 0 | Fraction Coiled [2, 10]: 0.2963 | Fraction Jerky-Unc [2, 10]: 0.2222 | Fraction Parayzed [2, 10]: 0.4815 | adult worms NP (no phene) ([2]; emb-8, 60µM, 24h): 0 | Fraction Coiled ([2]; emb-8, 60µM, 24h, per bio rep): 0.3333 and 0.2222 | Fraction No Phenotype (C. elegans; [3]): 0.0000 | Fraction No Phenotype (C. elegans; N2, 60µM, 1h, per bio rep): 0.0000 | Fraction No Phenotype (C. elegans; [4]): 0.5741 | Fraction No Phenotype (C. elegans; N2, 60µM, 4h, per bio rep): 0.3889 and 0.5556 and 0.7778 | Fraction No Phenotype (C. elegans; [5]): 0.7407 | Fraction No Phenotype (C. elegans; N2, 60µM, 6h, per bio rep): 0.8333 and 0.5556 | Fraction No Phenotype (C. elegans; [6]): 1.0000 | Fraction No Phenotype (C. elegans; N2, 60µM, 24h, per bio rep): 1.0000 | Fraction No Phenotype (C. elegans; [7]): 0.0000 | Fraction No Phenotype (C. elegans; emb-8, 60µM, 1h, per bio rep): 0.0000 | Fraction No Phenotype (C. elegans; [8]): 0.0000 | Fraction No Phenotype (C. elegans; emb-8, 60µM, 4h, per bio rep): 0.0000 | Fraction No Phenotype (C. elegans; [9]): 0.0000 | Fraction No Phenotype (C. elegans; emb-8, 60µM, 6h, per bio rep): 0.0000 | Fraction No Phenotype (C. elegans; [10]): 0.0000 | Fraction No Phenotype (C. elegans; emb-8, 60µM, 24h, per bio rep): 0.0000
